Results as given in patent US6800772B2, “Carboxylic acids and derivatives thereof and pharmaceutical compositions containing them” (Yissum Research Development Company of the Hebrew …, priority 1997, dated 2004).

Experiments:
Rats [1] = assay: Experiment III: conditions as in Experiment II; plasma lipids, apo C-III, glucose, insulin; format: in vivo
Experimental: (§1) Rats (n=5 for each treatment group) were fed ad libitum on purina chow for 5 days, the diet being supplemented with either γ,γ′-methyl substituted α,ω hexadecanedioic acid (formula (II). Ex. 3) or β,β′-methyl substituted α,ω-hexadecanedioic acid (U.S. Pat. No. 4,634,795) at a dosage of 0.09% (w/w) in the diet. The biological effect in vivo was evaluated by following plasma triglycerides, plasma apolipoprotein(apo)C-III, plasma insulin and the steady state concentrations (Css) of the respective drugs in plasma. Fold efficacy of the γ,γ′-substituted compound (Ex. 3) relative to the β,β′-substituted compound was calculated by normalizing the observed effect by the respective Css attained.
Conditions as in Experiment II using α,α′-methyl-substituted α,ω-tetradecanedioic acid.
Fold efficacy represents the respective effect induced by the α,α′-substituted compound (Ex. 5) relative to that of the β,β′-substituted compound.

Rats [2] = assay: Experiment I: rats fed chow supplemented with compound for 6 days; plasma lipids, glucose, food intake; format: in vivo; conditions: 0.1% (w/w) in diet
Experimental: Rats (n=5 for each treatment group) were fed ad libitum on Purina chow for 6 days, the diet being supplemented with 0.1% (w/w) γ,γ′-methyl substituted α,ω-dioic acids of formula (II) (Ex. 1, Ex. 3, Ex. 4) in the diet. The biological effect in vivo was evaluated by following food intake, plasma triglycerides, plasma cholesterol and plasma glucose.

Rats [3] = assay: Experiment II: rats fed chow supplemented with compound for 5 days; plasma triglycerides, apo C-III, insulin; format: in vivo
Experimental: as §1

[4] = effect of α,α′-substituted compound relative to β,β′-substituted compound
[5] = rats, conditions as in Experiment II
[6] = observed effect normalized by respective Css, relative to β,β′-substituted compound
[7] = rats, 0.09% (w/w) in diet, 5 days

With `CC(C)(CCCCCCCCCCCCC(C)(C)C(=O)O)C(=O)O` [Ex. 6, 2,2,15,15-Tetramethylhexadecanedioic Acid] the “Fold efficacy (α,α/β,β), plasma apo C-III” value (Rats [1]; [4]) was 3.7, the “Fold efficacy (α,α/β,β), plasma cholesterol” value (Rats [1]; [4]) was 1.2 and the “Fold efficacy (α,α/β,β), plasma glucose” value (Rats [1]; [4]) was 1.1. The “Fold efficacy (α,α/β,β), plasma insulin” value (Rats [1]; [4]) was 1.0, the “Fold efficacy (α,α/β,β), plasma triglycerides” value (Rats [1]; [4]) was 1.78 and the “Plasma apo C-III” value (Rats [1]; [5]) was 17 ± 14 mg %. The Plasma cholesterol (Rats [1]; [5]) was 69.5 ± 9.7 mg %, the Plasma glucose (Rats [1]; [5]) was 104 ± 4 mg % and the Plasma insulin (Rats [1]; [5]) was 24.2 ± 7.3 µU/mL. It also gave a Plasma triglycerides (Rats [1]; rats, conditions as in Experiment II (0.09% w/w in diet, 5 days)) of 44.5 ± 14.0 mg %.
Work on `CC(C)(CCCCCCC(C)(C)CCC(=O)O)CCC(=O)O` [Ex. 1, 4,4,11,11-Tetramethyltetradecanedioic Acid] yielded a melting point of 88 to 89 °C, a Food intake (Rats [2]) of 18.6 ± 2.1 g/day and a Plasma cholesterol (Rats [2]) of 64.1 ± 12.0 mg %. It also gave a Plasma glucose (Rats [2]) of 127.8 ± 6.6 mg % and a Plasma triglycerides (Rats [2]) of 24.8 ± 3.9 mg %.
For `CC(C)(CCCCCCCCCCC(C)(C)CCC(=O)O)CCC(=O)O` [Ex. 4, 4,4,15,15-Tetramethyloctadecanedioic acid], the melting point was 71 to 72 °C, the Food intake (Rats [2]) was 19.1 ± 1.2 g/day and the Plasma cholesterol (Rats [2]) was 56.8 ± 10.8 mg %. It also gave a Plasma glucose (Rats [2]) of 139.0 ± 9.0 mg % and a Plasma triglycerides (Rats [2]) of 29.3 ± 10.4 mg %.
Compound `CC(C)(CCCCCCCCC(C)(C)CCC(=O)O)CCC(=O)O` [Ex. 3, 4,4,13,13-Tetramethylhexadecanedioic Acid] has a Food intake (Rats [2]) of 19.3 ± 1.1 g/day, a Plasma cholesterol (Rats [2]) of 62.4 ± 13.3 mg % and a Plasma glucose (Rats [2]) of 138.8 ± 2.7 mg %. The Plasma triglycerides (Rats [2]) was 28.8 ± 7.4 mg %, the “Fold efficacy (γ,γ/β,β), plasma apo C-III” value (Rats [3]; [6]) was 7.7 and the “Fold efficacy (γ,γ/β,β), plasma insulin” value (Rats [3]; [6]) was 15.2. For the same compound, the “Fold efficacy (γ,γ/β,β), plasma triglycerides” value (Rats [3]; [6]) was 8.2, the “Plasma apo C-III” value (Rats [3]; [7]) was 12.0 ± 4.6 mg % and the Plasma insulin (Rats [3]; [7]) was 16 ± 6.1 µU/mL. For the same compound, the Plasma triglycerides (Rats [3]; [7]) was 19.9 ± 7.4 mg %.
